For data set [1], the target named is T1, Serine-protein kinase ATM (Homo sapiens, UniProt Q13315). Put plainly: Inhibition of ATM (unknown origin) by FRET assay.
Data set [2] deals with Phosphatidylinositol 4,5-bisphosphate 3-kinase catalytic subunit alpha isoform (Homo sapiens) (UniProt P42336). Put plainly: Inhibition of PI3Kalpha (unknown origin) assessed as residual activity at 1 uM relative to control.
Data set [3] concerns the target Leucine-rich repeat serine/threonine-protein kinase 2 (Homo sapiens) (UniProt Q5S007). Put plainly: Inhibition of LRRK2 (unknown origin) assessed as residual activity at 1 uM relative to control.
Data set [4] has as its target DNA-dependent protein kinase catalytic subunit (Homo sapiens) (UniProt P78527). Put plainly: Inhibition of DNA-PK (unknown origin) assessed as residual activity at 1 uM relative to control.
Data set [5] deals with T1, Serine-protein kinase ATM. Put plainly: Inhibition of ATM in human A549 cells assessed as reduction in etoposide-stimulated KAP1 phosphorylation by In-Cell-Western assay. It is filed as cell-based.
Data set [6] can be described thus: Metabolic stability in mouse liver microsomes assessed as parent compound remaining after 120 mins. On the technique in general: Liver microsomes are vesicles of endoplasmic reticulum, rich in cytochrome P450 enzymes.
Data set [7] concerns the target Phosphatidylinositol 4,5-bisphosphate 3-kinase catalytic subunit beta isoform (Homo sapiens) (UniProt P42338). Put plainly: Inhibition of PI3Kbeta (unknown origin) assessed as residual activity at 1 uM relative to control.
The species entered for another data set is Homo sapiens. Put plainly: Selectivity ratio for inhibition of ATR (unknown origin) to inhibition of ATM (unknown origin).
Data set [8] concerns the target Serine/threonine-protein kinase mTOR (Homo sapiens) (UniProt P42345). Put plainly: Inhibition of mTOR (unknown origin) assessed as residual activity at 1 uM relative to control.
The target in data set [9] is Phosphatidylinositol 4,5-bisphosphate 3-kinase catalytic subunit gamma isoform (Homo sapiens) (UniProt P48736). Put plainly: Inhibition of PI3Kgamma (unknown origin) assessed as residual activity at 1 uM relative to control.
The target of data set [10] is T2, Phosphatidylinositol 4,5-bisphosphate 3-kinase catalytic subunit delta isoform (Homo sapiens) (UniProt O00329).
T2 sequence (whole entry): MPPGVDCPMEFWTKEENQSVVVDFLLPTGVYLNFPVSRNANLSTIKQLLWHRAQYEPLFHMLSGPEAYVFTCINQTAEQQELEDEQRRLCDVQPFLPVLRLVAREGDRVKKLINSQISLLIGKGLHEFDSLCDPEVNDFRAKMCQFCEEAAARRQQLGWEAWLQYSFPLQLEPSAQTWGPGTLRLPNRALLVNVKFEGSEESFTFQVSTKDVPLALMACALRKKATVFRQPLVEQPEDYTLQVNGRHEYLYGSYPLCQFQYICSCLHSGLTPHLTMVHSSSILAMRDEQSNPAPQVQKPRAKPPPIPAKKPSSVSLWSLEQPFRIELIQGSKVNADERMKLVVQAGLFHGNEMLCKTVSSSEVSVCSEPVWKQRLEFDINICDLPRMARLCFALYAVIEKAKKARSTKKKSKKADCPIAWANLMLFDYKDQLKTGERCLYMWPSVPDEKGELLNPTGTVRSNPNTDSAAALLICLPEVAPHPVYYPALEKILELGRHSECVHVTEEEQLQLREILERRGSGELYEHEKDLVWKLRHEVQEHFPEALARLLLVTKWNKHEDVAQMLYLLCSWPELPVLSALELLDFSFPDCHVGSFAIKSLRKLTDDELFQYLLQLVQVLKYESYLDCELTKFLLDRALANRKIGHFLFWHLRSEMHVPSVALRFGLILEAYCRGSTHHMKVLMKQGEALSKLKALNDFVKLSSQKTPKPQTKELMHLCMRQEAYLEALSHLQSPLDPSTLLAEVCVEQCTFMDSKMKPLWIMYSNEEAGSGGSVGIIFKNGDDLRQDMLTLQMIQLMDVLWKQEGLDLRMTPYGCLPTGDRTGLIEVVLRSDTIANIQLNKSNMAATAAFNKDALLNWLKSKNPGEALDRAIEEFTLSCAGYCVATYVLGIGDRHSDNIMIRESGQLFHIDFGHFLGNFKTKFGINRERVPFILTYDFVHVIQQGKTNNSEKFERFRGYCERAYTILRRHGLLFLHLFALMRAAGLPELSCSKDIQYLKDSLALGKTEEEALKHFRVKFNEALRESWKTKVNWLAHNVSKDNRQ
Put plainly: Inhibition of PI3Kdelta (unknown origin) assessed as residual activity at 1 uM relative to control.

The target in data set [11] is Serine/threonine-protein kinase ATR (Homo sapiens) (UniProt Q13535). Put plainly: Inhibition of ATR (unknown origin) assessed as residual activity at 1 uM relative to control.
Data set [12] in a line: Thermodynamic solubility of compound in PBS at pH 7.4. To be noted: read-out: Therm_solubility. It is filed as physicochemical.

≈ marks a conversion by molar mass, not a printed value.

T1 sequence (Q13315 whole entry, canonical isoform): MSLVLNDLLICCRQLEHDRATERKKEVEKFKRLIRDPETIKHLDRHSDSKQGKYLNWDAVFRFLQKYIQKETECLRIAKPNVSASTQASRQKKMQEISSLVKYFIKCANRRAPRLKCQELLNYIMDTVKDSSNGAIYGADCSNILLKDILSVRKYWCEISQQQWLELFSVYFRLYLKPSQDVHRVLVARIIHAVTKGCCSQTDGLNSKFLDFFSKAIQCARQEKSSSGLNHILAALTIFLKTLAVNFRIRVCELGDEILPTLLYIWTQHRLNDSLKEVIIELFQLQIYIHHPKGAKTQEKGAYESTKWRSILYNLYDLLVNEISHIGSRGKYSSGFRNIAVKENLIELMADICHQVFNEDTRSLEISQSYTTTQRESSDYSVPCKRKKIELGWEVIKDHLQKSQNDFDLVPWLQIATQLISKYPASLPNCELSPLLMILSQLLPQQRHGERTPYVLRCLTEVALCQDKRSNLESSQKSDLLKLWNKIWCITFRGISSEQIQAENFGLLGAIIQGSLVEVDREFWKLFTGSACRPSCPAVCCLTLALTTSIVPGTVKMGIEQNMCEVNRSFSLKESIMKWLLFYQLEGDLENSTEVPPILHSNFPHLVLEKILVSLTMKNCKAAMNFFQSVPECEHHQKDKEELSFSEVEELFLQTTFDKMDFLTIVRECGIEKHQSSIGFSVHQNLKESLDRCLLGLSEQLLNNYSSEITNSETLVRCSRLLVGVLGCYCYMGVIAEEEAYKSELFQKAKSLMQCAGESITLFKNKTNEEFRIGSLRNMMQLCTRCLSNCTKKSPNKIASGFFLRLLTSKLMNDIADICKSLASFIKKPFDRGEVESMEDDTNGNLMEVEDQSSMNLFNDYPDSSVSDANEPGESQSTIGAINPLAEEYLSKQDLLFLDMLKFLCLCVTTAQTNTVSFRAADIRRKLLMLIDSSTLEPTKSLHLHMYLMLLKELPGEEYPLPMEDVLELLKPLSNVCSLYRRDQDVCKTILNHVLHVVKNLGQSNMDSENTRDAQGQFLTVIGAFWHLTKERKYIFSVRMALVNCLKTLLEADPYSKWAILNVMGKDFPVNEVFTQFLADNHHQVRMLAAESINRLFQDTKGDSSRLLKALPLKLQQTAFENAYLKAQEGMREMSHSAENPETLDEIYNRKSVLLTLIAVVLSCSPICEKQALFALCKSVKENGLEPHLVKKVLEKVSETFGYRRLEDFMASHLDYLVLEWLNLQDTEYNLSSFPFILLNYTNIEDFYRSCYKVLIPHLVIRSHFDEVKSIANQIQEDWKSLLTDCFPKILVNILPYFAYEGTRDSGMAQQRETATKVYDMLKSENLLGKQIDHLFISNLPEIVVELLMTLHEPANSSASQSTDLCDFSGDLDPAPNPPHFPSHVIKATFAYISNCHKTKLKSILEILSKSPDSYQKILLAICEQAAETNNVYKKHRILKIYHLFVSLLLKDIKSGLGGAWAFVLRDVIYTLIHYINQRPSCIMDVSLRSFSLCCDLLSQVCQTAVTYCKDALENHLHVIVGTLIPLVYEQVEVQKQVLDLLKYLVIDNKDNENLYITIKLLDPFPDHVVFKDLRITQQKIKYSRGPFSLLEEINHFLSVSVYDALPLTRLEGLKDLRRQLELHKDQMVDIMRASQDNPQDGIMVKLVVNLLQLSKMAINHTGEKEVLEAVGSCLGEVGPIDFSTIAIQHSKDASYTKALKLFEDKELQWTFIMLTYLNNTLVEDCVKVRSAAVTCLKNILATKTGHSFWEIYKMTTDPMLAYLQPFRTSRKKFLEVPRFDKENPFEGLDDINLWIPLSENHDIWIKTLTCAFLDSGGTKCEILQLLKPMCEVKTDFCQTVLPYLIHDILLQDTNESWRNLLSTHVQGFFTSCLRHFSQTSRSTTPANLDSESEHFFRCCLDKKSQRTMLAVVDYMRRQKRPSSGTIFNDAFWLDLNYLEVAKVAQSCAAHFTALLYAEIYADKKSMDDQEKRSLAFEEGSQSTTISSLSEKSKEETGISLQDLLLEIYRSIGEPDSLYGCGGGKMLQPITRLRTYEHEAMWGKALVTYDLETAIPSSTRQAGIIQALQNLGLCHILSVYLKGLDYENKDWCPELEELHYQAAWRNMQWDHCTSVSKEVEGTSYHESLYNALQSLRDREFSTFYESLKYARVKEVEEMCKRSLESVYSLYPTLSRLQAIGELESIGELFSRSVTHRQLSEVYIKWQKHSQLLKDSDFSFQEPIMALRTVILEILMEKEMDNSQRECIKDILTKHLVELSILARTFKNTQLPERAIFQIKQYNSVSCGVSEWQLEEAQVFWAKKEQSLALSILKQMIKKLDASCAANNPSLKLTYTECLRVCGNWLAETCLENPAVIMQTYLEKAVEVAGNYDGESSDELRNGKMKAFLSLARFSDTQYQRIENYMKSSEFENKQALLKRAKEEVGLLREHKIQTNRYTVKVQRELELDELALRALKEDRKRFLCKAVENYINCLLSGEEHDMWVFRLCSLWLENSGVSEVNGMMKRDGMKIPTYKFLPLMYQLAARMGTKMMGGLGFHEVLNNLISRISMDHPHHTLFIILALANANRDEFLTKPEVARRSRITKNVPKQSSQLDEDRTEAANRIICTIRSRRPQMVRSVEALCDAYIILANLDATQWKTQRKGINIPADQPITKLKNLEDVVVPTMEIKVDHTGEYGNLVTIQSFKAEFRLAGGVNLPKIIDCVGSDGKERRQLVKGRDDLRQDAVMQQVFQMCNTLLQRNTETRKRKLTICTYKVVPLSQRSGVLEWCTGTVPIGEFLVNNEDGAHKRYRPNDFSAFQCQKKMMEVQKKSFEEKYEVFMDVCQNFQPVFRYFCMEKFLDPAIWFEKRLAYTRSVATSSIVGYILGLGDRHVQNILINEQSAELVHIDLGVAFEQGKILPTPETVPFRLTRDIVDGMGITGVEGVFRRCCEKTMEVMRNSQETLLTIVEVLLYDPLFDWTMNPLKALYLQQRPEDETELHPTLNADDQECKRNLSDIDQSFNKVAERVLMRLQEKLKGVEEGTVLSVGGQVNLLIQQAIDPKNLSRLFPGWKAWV
Phosphatidylinositol 4,5-bisphosphate 3-kinase catalytic subunit beta isoform (Homo sapiens), sequence (P42338 whole entry, looked up, canonical isoform): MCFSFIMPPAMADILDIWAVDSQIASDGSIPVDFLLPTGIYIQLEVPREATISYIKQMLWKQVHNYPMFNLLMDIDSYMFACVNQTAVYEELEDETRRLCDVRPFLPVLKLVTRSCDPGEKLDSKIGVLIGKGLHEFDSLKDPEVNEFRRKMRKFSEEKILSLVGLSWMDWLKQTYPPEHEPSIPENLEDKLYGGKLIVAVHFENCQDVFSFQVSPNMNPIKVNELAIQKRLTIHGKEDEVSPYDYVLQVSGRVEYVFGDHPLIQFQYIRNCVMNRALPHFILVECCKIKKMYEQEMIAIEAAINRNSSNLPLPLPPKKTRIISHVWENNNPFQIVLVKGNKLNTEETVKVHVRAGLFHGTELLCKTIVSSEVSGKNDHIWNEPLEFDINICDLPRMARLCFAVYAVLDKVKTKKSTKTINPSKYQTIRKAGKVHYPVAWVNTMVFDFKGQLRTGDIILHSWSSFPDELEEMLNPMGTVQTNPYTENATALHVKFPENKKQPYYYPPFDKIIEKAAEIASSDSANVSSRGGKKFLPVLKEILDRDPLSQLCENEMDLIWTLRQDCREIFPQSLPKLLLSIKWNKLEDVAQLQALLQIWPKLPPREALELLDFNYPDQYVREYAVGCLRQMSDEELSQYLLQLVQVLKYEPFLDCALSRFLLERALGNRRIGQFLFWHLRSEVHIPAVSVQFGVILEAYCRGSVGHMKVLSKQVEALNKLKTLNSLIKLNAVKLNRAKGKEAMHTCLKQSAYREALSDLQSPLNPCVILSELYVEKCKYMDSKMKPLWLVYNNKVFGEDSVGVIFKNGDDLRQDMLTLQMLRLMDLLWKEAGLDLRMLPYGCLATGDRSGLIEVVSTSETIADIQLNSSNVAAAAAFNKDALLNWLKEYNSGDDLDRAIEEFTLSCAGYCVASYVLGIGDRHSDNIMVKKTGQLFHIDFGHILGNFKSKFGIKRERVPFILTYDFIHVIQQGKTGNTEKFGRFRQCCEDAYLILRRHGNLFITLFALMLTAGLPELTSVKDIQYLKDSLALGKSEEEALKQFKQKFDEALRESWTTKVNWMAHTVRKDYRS

Regarding `COCCn1c(=O)n(C)c2cnc3ccc(-c4ccc(NC(=O)NC5CN(C)C5)cc4)cc3c21`, the IC50 (usually the concentration needed to halve the response being measured) in [1] is less than 1 nM.
Regarding `COCCn1c(=O)n(C)c2cnc3ccc(-c4ccc(NC(=O)NCCN5CC(F)C5)cc4)cc3c21`, the Activity is -11% in data set [2]; 87% in [3]; -4% in data set [4]; 42% in [7]; -1% in data set [8]; 34% in data set [9]. Besides, the Activity in data set [10] was 23%; in [11], 109%. Besides, the IC50 in data set [5] was 0.32 nM; in [1], less than 1 nM. Besides, the amount remaining – broadly, what is left of the initial amount, in per cent – at 2 h in [6] worked out at 50%. Also, the Selectivity ratio in the data set listed under Homo sapiens is more than 1000.
`COCCn1c(=O)n(C)c2cnc3ccc(-c4ccc(NC(=O)N5CCC(N(C)C)CC5)cc4)cc3c21`: in data set [1], the half-maximal inhibitory concentration (IC50) is 945 nM.
In the case of `CN(C)CCCOc1ccc(-c2ccc3ncc4c(c3c2)n(C2CCOCC2)c(=O)n4C)cn1`, the solubility thermodynamic in [12] is 2970 µM (≈ 1370 µg/mL).
`COCCn1c(=O)n(C)c2cnc3ccc(-c4ccc(NC(=O)NCCN(C)C)c(F)c4Cl)cc3c21`: the IC50 in data set [1] was 32 nM.
Consider `COCCn1c(=O)n(C)c2cnc3ccc(-c4ccc(NC(=O)NCCN(C)C)c(F)c4)cc3c21`, for which the Activity amounted to 28% in [2]; 92% in data set [3]; 8% in data set [4]; 87% in [7]; 4% in data set [8]; 80% in [9]. Further, the Activity was 35% in data set [10] and 104% in [11]. For the same compound, the IC50 was 0.71 nM in data set [5] and less than 1 nM in data set [1]. For the same compound, in data set [6], the fraction remaining at 2 h amounted to 78%. Moreover, the Selectivity ratio in the data set filed under Homo sapiens is more than 1000.
Turning to `COCCn1c(=O)n(C)c2cnc3ccc(-c4ccc(NC(=O)NC5CCCN(C)C5)cc4)cc3c21` (stereo not given), the IC50 in data set [1] was less than 1 nM.
Still for that read-out and setting: to `COCCn1c(=O)n(C)c2cnc3ccc(-c4ccc(NC(=O)N5CCN(C)CC5)c(F)c4Cl)cc3c21` belongs 885 nM; to `COCCn1c(=O)n(C)c2cnc3ccc(-c4ccc(NC(=O)NC(C)CN(C)C)cc4)cc3c21` (stereo not given), less than 1 nM.
For the compound `COCCn1c(=O)n(C)c2cnc3ccc(-c4ccc(NC(=O)N(C)CCN(C)C)cc4)cc3c21`, the half-inhibitory concentration (IC50) is 1.33 nM in data set [5] and less than 1 nM in [1].
`COCCn1c(=O)n(C)c2cnc3ccc(-c4ccc(NC(=O)N5CCN(C)CC5)c(C)c4F)cc3c21` yielded an IC50 in data set [1] of 1580 nM.
Turning to `COCCn1c(=O)n(C)c2cnc3ccc(-c4ccc(NC(=O)NCCN(C)C)cc4)cc3c21`, the IC50 in data set [5] was 1.7 nM; in data set [1], less than 1 nM. In data set [12], the solubility thermodynamic is 1570 µM (≈ 726 µg/mL).
As for `COCCn1c(=O)n(C)c2cnc3ccc(-c4ccc(NC(=O)NCCN(C)C)cc4F)cc3c21`, the results for the IC50 in data set [5] and in data set [1] were 0.65 nM and less than 1 nM, respectively.
`COCCn1c(=O)n(C)c2cnc3ccc(-c4ccc(NC(=O)N5CCN(C)CC5)cc4)cc3c21` came in with an IC50 in data set [1] of 78 nM.
In turn, `CN(C)CCNC(=O)Nc1ccc(-c2ccc3ncc4c(c3c2)n(C2CCOCC2)c(=O)n4C)cc1` displayed an IC50 in data set [1] of less than 1 nM. Also, the solubility thermodynamic in [12] came to 39 µM (≈ 19.1 µg/mL).
The compound `COCCn1c(=O)n(C)c2cnc3ccc(-c4ccc(NC(=O)N5CCN(C(C)C)CC5)cc4)cc3c21` came in with an IC50 in data set [1] of 158 nM.
Same read-out and setting: the result for `COCCn1c(=O)n(C)c2cnc3ccc(-c4ccc(NC(=O)N5CCN(C)CC5)c(F)c4)cc3c21` reads 394 nM.
Take `CCN1CCN(C(=O)Nc2ccc(-c3ccc4ncc5c(c4c3)n(CCOC)c(=O)n5C)cc2)CC1`: the IC50 in data set [1] is 159 nM.
`COCCn1c(=O)n(C)c2cnc3ccc(-c4ccc(NC(=O)NC5CCN(C)C5)cc4)cc3c21` (stereo not given) came in with an IC50 in data set [1] of less than 1 nM.
`COCCn1c(=O)n(C)c2cnc3ccc(-c4ccc(NC(=O)N5CCC(N)CC5)cc4)cc3c21` yielded an IC50 in [1] of 16 nM.
Still for that read-out and setting: to `COCCn1c(=O)n(C)c2cnc3ccc(-c4ccc(NC(=O)N5C[C@@H]6C[C@H]5CN6C)cc4)cc3c21` belongs 25 nM.
As for `CN(C)CCNC(=O)Nc1ccc(-c2ccc3ncc4c(c3c2)n(C2CCOCC2)c(=O)n4C)cn1`, in [1], the IC50 is less than 1 nM. In addition, the solubility thermodynamic in [12] was found to be 36 µM (≈ 17.6 µg/mL).
In turn, `COCCn1c(=O)n(C)c2cnc3ccc(-c4ccc(NC(=O)N5CCC(NC(=O)OC(C)(C)C)CC5)cc4)cc3c21` showed an IC50 in data set [1] of 2 nM.
Turning to `COCCn1c(=O)n(C)c2cnc3ccc(-c4ccc(NC(=O)NCCN(C)C)c(C)c4F)cc3c21`, in [1], the IC50 amounted to 37 nM.
On the same count and under the same terms, to `COCCn1c(=O)n(C)c2cnc3ccc(-c4ccc(NC(=O)NC5CCNCC5)cc4)cc3c21` belongs less than 1 nM; to `COCCn1c(=O)n(C)c2cnc3ccc(-c4ccc(NC(=O)N5CCN(C)CC5)cc4F)cc3c21`, 101 nM.
Turning to `COCCn1c(=O)n(C)c2cnc3ccc(-c4ccc(NC(=O)NCCN5CC(F)(F)C5)cc4)cc3c21`, the values for the IC50 in [5] and in [1] were 3.31 nM and less than 1 nM, respectively.
Compound `COCCn1c(=O)n(C)c2cnc3ccc(-c4ccc(NC(=O)N5CCN(C)CC5)c(F)c4F)cc3c21` displayed an IC50 in data set [1] of 212 nM.
As to `COCCn1c(=O)n(C)c2cnc3ccc(-c4ccc(NC(=O)NC5CCN(C(=O)OC(C)(C)C)CC5)cc4)cc3c21`, the IC50 in data set [1] is less than 1 nM.
In the case of `COCCn1c(=O)n(C)c2cnc3ccc(-c4ccc(NC(=O)NCCN5CCC5)cc4)cc3c21`, the IC50 is 0.92 nM in data set [5] and less than 1 nM in data set [1].

(Values after ChEMBL document CHEMBL5154812, “Development of novel urea-based ATM kinase inhibitors with subnanomolar cellular potency and high kinome selectivity” (Eur J Med Chem, 2022).)
